Measured values taken from PubChem BioAssay (NCI).
Several values for one entry are separate records, joined by “and”; a condition that tells them apart may be missing. Equal values may be shown once.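 Briefly, cells in 96-well plates were exposed to five compound concentrations for 48 h, and endpoints were estimated by linear interpolation. Abbreviation: GI50, concentration required for 50% inhibition of growth. TGI marks complete inhibition of growth.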

How the values were obtained:
Experiment in all cases: growth of human tumour cells (NCI), 48 h
[1] = test system: EKVX NSCLC
[2] = test system: SNB-78 CNS
[3] = test system: HT29 colon
[4] = test system: ACHN renal
[5] = test system: LXFL 529 NSCLC
[6] = test system: SNB-75 CNS
[7] = test system: K-562 leukemia
[8] = test system: UO-31 renal
[9] = test system: 786-0 renal
[10] = test system: SF-539 CNS

Row | SMILES | TGI [1] | TGI [2] | TGI [3] | TGI [4] | TGI [5] | TGI [6] | TGI [7] | TGI [8] | TGI [9] | TGI [10] | GI50 [2] | GI50 [3] | GI50 [4] | GI50 [5] | GI50 [7] | GI50 [6] | GI50 [8] | GI50 [1] | GI50 [9] | GI50 [10]
1 | N#CC(C(=O)/C(=N\NC(N)=O)C(C#N)c1ccccc1)c1ccccc1 (centres undefined) | > 100 µM | > 100 µM | > 100 µM | > 100 µM | > 100 µM | > 100 µM | > 100 µM | > 100 µM | > 100 µM | > 100 µM |  |  |  |  |  |  |  |  |  | 
2 | N/N=C(/Cc1nc2ccc(C(=O)c3ccccc3)cc2[nH]c1=O)C(=O)Nc1ccc([N+](=O)[O-])cc1[N+](=O)[O-] | > 100 µM | > 100 µM | > 100 µM | > 100 µM | > 100 µM |  | > 100 µM | > 100 µM | > 100 µM | > 100 µM | > 100 µM | > 100 µM | > 100 µM | > 100 µM | > 100 µM |  |  |  |  | 
3 | CCOC(=O)CC(NC(=O)c1[nH]cnc1/N=N/N(C)C)C(=O)OCC (centres undefined) | > 100 µM |  | > 100 µM | > 100 µM | > 100 µM | > 100 µM | > 100 µM | > 100 µM | > 100 µM | > 100 µM |  |  |  |  |  |  |  |  |  | 
4 | CCNC(=O)OCc1c(COC(=O)NCC)c(-c2ccc(Cl)c(Cl)c2)n2c1CCC2 |  |  | > 100 µM | 37.5 µM | 34.8 µM | 27.7 µM | 37.8 µM | 24.3 µM | 33.5 µM | 25.6 µM |  |  |  |  |  |  |  |  |  | 
5 | O=C(Nc1ccc(Cl)cc1Cl)OC(Cn1cncn1)c1ccc(Cl)cc1Cl (centres undefined) | 31.5 µM | 38.6 µM | 28.5 µM | 29 µM | 30.6 µM | 30.1 µM | > 100 µM | 26 µM | 33.5 µM | 32.5 µM |  |  |  |  |  |  |  |  |  | 
6 | COC(=O)C1=CC2C=CC(C1C(=O)OC)C1C(C(=O)OC)=C(C(=O)OC)C(C(=O)OC)=C(C(=O)OC)C21OC (centres undefined) | > 100 µM | > 100 µM | > 100 µM | > 100 µM | > 100 µM | > 100 µM |  | > 100 µM | > 100 µM | > 100 µM |  |  |  |  |  |  |  |  |  | 
7 | COc1cc(OC)cc(-c2cc(=O)c3cc4c(cc3[nH]2)OCO4)c1 | > 100 µM | > 89.2 µM | > 100 µM | > 35.5 µM | 20.6 µM | 43.7 µM | > 50.2 µM | > 88.9 µM | 33 µM | 0.498 µM |  |  |  |  |  |  |  |  |  | 
8 | O=C(/C=C/c1cccc([N+](=O)[O-])c1)c1ccc([N+](=O)[O-])cc1 | > 100 µM | > 100 µM | > 100 µM | > 100 µM | > 100 µM | > 100 µM | > 100 µM | > 100 µM | > 100 µM | > 100 µM |  |  |  |  |  |  |  |  |  | 
9 | CNS(=O)(=O)NNS(=O)(=O)c1ccc(OC)cc1 | > 100 µM |  | > 100 µM | > 100 µM | > 100 µM | > 100 µM | > 100 µM | > 100 µM | > 100 µM | > 100 µM |  |  |  |  |  |  |  |  |  | 
10 | CC(C)CCCCCCCCCCCCC(=O)NCC(=O)NC1C(O)C(O)C(Nc2ncnc3nc[nH]c23)OC1C(O)CO (centres undefined) | 0.0228 µM and 0.0578 µM and 0.0199 µM | 0.0647 µM and 0.244 µM | 0.0109 µM and 0.0666 µM and 0.0148 µM |  |  |  | 0.412 µM and 3.94 µM | 0.00451 µM and 0.0075 µM | 0.526 µM |  | 0.005 µM |  | < 1e-05 µM |  | 0.00331 µM and 0.0128 µM | < 1e-05 µM | 0.005 µM |  |  | 
11 | O=C(c1ccc(Cl)cc1)c1ccc(OCCCOc2ccc(C(=O)c3ccc(Cl)cc3)cc2Cl)c(Cl)c1 | > 100 µM | > 100 µM | > 100 µM | > 100 µM | > 100 µM | > 100 µM | > 100 µM |  | > 100 µM | > 100 µM |  |  |  |  |  |  |  |  |  | 
12 | Nc1ccccc1C(=O)CCC1C(=O)NC(=S)NC1=O | > 100 µM |  | > 100 µM | > 100 µM | > 100 µM | > 89.6 µM | > 100 µM | > 100 µM | > 100 µM | > 100 µM |  |  |  |  |  |  |  |  |  | 
13 | CCc1ccc(COC(=O)C2=C(C)NC(C)=C(C(=O)OCc3ccc(CC)cn3)C2C2=COCCO2)nc1 | 65.1 µM |  | 43.7 µM | 89.7 µM |  | 39.3 µM | 53.7 µM | 60.4 µM | 69.4 µM | 27.7 µM |  |  |  |  |  |  |  |  |  | 
14 | COc1cc(C2c3cc4c(cc3C(OC(=O)C[n+]3ccccc3)C3COC(=O)C23)OCO4)cc(OC)c1OC (centres undefined) | > 100 µM |  | > 100 µM | > 100 µM |  | > 100 µM | > 100 µM | > 100 µM | > 100 µM | < 0.0278 µM |  | < 0.01 µM | < 0.0204 µM |  | < 0.0173 µM | 1.33 µM | < 0.0231 µM | 0.436 µM | < 0.0183 µM | < 0.0154 µM
15 | COC1(OC)C2(Cl)C(Cl)=C(Cl)C1(Cl)C1C2C2CC1(C(=O)O)c1ccccc12 (centres undefined) |  |  | 76.3 µM | > 100 µM | 28 µM |  | 43.2 µM | 44.7 µM | 31.6 µM |  |  |  |  |  |  |  |  |  |  | 
16 | COC1OC2COC(C)(C)OC2C(OC(C)=O)C1NC(=O)N(CCCl)N=O (centres undefined) | > 100 µM | > 100 µM | > 100 µM | > 100 µM | > 100 µM | > 100 µM | > 100 µM |  | > 100 µM | 93.1 µM |  |  |  |  |  |  |  |  |  | 
17 | CC(=O)[C@H]1CCC2[C@@H]3CC=C4C[C@@H]([O-])CC[C@]4(C)C3CC[C@@]21C.CC(=O)[C@H]1CCC2[C@@H]3CC=C4C[C@@H]([O-])CC[C@]4(C)C3CC[C@@]21C.CC(=O)[CH-]C(=O)c1ccccc1.CC(=O)[CH-]C(=O)c1ccccc1.Cl.[Ti+4] (some centres undefined) |  |  | > 100 µM | 99.1 µM | > 100 µM | 66.2 µM | > 100 µM | 79.3 µM | 17.9 µM |  |  | 14.2 µM | 22.8 µM | 32.1 µM | 12.7 µM | 24.4 µM | 28.9 µM |  | 6.03 µM | 9.44 µM
18 | S=c1ncc2c([nH]1)C1c3ccccc3C2c2ccccc21 | > 100 µM | > 100 µM |  | > 100 µM | > 100 µM | 77.2 µM | > 100 µM | > 100 µM | > 100 µM | > 100 µM |  |  |  |  |  |  |  |  |  | 
19 | O=C1c2ccccc2-c2c1c1ccccc1c(=O)n2CCCNCCn1c2c(c3ccccc3c1=O)C(=O)c1ccccc1-2 | 27.2 µM |  | 10 µM | 24.8 µM |  | 32.2 µM | 42.3 µM | 17.3 µM | 9.64 µM | 27.8 µM |  | 2.42 µM | 12.3 µM |  | 19.2 µM | 11.8 µM |  | 12.5 µM | 1.98 µM | 14.6 µM
20 | NS(=O)(=O)c1cc(C(=O)O)c(O)c2ccccc12 | > 100 µM |  | > 100 µM | > 100 µM |  | > 100 µM | > 100 µM | > 100 µM | > 100 µM | > 100 µM |  |  |  |  |  |  |  |  |  | 
